We go through two compounds from patent publication US10369123B2, “Perk activator for the treatment of neurodegenerative diseases” (DEUTSCHES ZENTRUM FÜR NEURODEGENERATIVE ERKRANKUNGEN E.V. …, priority 2014, dated 2019).

Some results are limits rather than exact numbers.

The test system of the data set is LUHMES cells. The data set is described as follows: Identification of non-toxic, effective concentrations of PERK modulators (MTT viability, pEIF2A Western blot). Format: cell-based, human. The conditions noted are these: for non-toxic concentration effectively modifying EIF2A phosphorylation: LUHMES neurons, 48 h. The protocol: Nunc™ Nunclon™ Delta 6-well (for protein and mRNA) or 48-well (for cell assays) plates (Thermo Fisher Scientific, Waltham, Mass., USA) were coated with 100 μg/ml poly-L-lysine (Sigma-Aldrich, St. Louis, Mo., USA) and 5 μg/ml fibronectin (Sigma-Aldrich). […] They were then differentiated for 8 days in a medium of DMEM/F12 (Sigma-Aldrich), 1 μg/ml tetracycline, […] and 490 μg/ml dbcAMP into post-mitotic neurons with a dopaminergic phenotype (Lotharius et al. 2005). […] 20 μg of protein (unless indicated otherwise) were adjusted to equal concentrations between samples by dilution with M-PER and subsequently heated at 95° C. for 5 minutes with Roti®-Load 1 (Carl Roth). SDS-PAGE was performed using Any kD™ Mini-PROTEAN® TGX™ Gels (BioRad, Berkeley, Calif., USA) in a tris-glycine running buffer. The protein was blotted onto PVDF membrane (BioRad) at 70 V for 65 minutes on ice. The membrane was blocked with 1× Roti®-Block solution (Carl Roth) for 1 h and then incubated at 4° C. overnight under gentle shaking with the primary antibody (see Table 5) in TBS with 5% BSA (Cell Signaling Technology) and 0.05% TWEEN (Sigma-Aldrich). Thiazolyl Blue Tetrazolium […] (Sigma Aldrich) was dissolved in sterile PBS to a concentration of 5 mg/ml. […] The 48-well culture plate was then incubated at 37° C. for 1 h, the medium removed completely and frozen at −80° C. for 1 h. The plate was then thawed, 300 μl DMSO (AppliChem, Darmstadt, Germany) was added per well and the plate was shaken to ensure complete dissolution of the violet crystals. 100 μl from each well were transferred to a new 96-well plate and the absorbance was read with the FLUOstar Omega (BMG Labtech) platereader at a wavelength of 590 nm (reference wave length 630 nm). The data was analyzed using the MARS Data Analysis Software (BMG Labtech) and Prism 6.
For orientation: In western blotting, separated proteins are transferred to a membrane and probed.

Regarding `CCN(CC)CCC(=O)N1N=C(c2c(-c3ccccc3)c3cc(Br)ccc3[nH]c2=O)CC1c1ccc(Br)cc1` (stereo not drawn) [CCT020312, 6-bromo-3-[5-(4-bromo-phenyl)-1-(3-diethylamino-propionyl)-4,5-dihydro-1H-pyrazol-3-yl]-4-phenyl-1H-quinolin-2-one], the “non-toxic concentration effectively modifying EIF2A phosphorylation” value was 200 nM. The “doses at which detrimental effects of UPR overactivation were seen” value (in vitro) is > 3 µM.

As for `Cn1cc(-c2ccc3c(c2)CCN3C(=O)Cc2cccc(C(F)(F)F)c2)c2c(N)ncnc21` [GSK2606414, reference compound], the “non-toxic concentration effectively modifying EIF2A phosphorylation” value is recorded as 300 nM.
